Residues, ends and D or L forms follow the SMILES beside them. *: point of attachment. Cbz = O=C(OCc1ccccc1)*
Assays:
[1] = tested on: scopolamine-induced amnesia; test: step-down passive avoidance test, anti-amnestic activity on scopolamine-induced amnesia; format: in vivo, male rats of Wister strain; conditions: scopolamine 0.5 mg/kg i.p., retention 24 hours after acquisition, relative to scopolamine-treated group
Text: A step-down passive avoidance test on rats was used as the method of assay for anti-amnestic activity to estimate the preventive effect of prolylendopeptidase inhibitors on scopolamine-induced amnesia. This method of assay involved application of electric shocks to animals upon their stepping down on a grid floor to see whether they have learned that such shocks can be avoided by staying on a platform. A passive avoidance test chamber used in this experiment was comprised of an electrifiable grid floor (20 cm in length and 22 cm in width) and a platform (20 cm in length, 15 cm in width and 5 cm in height) placed at the right back corner thereof.
5-Weeks-old male rats of Wister strain weighing 100-150 g (purchased from Japan Clea Co., Ltd.) were used in the test.
Each test compound used in the doses indicated in Tables 2-3 was dissolved or suspended in 4% gum arabic-containing distilled water (1 ml) and administered p.o. one hour before the commencement of acquisition trial. In addition, scopolamine hydrobromide dissolved in saline (0.5 ml) was intraperitoneally administered in a dose of 0.5 mg/kg 30 minutes before the acquisition trial to prepare experimental animal models of amnesia.
In the acquisition trial, the rat was placed on the platform in the test chamber and, when the animal stepped down on the grid floor, the electric current of 5.0 mA was immediately sent to the grid floor continuously until the animal went up on the platform If the rat having gone up on the platform stayed there for more than 30 seconds, the animal was regarded to have learned the situation and taken out of the test chamber. A total time of measurement in the acquisition trial was limited to 300 seconds as maximum, and the time elapsing until the rat learned the situation was measured. In order to avoid any significant difference in the rats, those which took more than 300 seconds for the learning were excluded from the experiment.
The retention trial was carried out 24 hours after the acquisition trial. In this trial, the rat was placed again on the platform in the test chamber, the time elapsing until the animal stepped down onto the grid floor (the step-down latency) was measured.
In each of these tables they are indicated as relative step-down latency, shown by each test compound-treated group in the retention trial, to step-down latency for scopolamine-treated group (i.e. test compound-treated group's step-down latency/scopolamine-treated group's step-down latency).

prolylendopeptidase = prolylendopeptidase (Elizabethkingia meningoseptica, UniProt P27028); test: biochemical; format: biochemical; conditions: substrate 2.5 mM Z-glycyl-proline-β-naphthylamide; pH 7.0; 35° C. for 10 minutes; read-out: inhibition constant (Ki)
Sequence of prolylendopeptidase (P27028 21-705): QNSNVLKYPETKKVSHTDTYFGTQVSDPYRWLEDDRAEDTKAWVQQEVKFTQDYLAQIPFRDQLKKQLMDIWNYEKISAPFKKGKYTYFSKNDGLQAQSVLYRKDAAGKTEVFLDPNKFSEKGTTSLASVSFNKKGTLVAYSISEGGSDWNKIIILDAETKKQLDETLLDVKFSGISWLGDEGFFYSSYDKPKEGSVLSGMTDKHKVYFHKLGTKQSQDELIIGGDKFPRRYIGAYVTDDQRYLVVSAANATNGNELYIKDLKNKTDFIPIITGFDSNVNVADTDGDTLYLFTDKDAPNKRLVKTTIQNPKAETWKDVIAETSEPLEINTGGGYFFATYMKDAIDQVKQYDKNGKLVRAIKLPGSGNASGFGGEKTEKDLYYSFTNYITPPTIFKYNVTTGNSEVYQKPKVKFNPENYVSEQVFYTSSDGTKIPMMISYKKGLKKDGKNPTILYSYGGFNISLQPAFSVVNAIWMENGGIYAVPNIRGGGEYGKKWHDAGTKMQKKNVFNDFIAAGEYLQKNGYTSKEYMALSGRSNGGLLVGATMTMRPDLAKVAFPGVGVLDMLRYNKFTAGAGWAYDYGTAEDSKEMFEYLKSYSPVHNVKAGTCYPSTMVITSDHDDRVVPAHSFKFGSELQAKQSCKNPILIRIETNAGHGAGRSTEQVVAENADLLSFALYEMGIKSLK
Procedure: The compounds of the invention obtained in the foregoing Examples were assayed for their prolylendopeptidase inhibition activity. This assay for prolylendopeptidase inhibition was carried out in accordance with the method of Yoshimoto and Tsuru (Yoshimoto, T. and Tsuru, D., Agr. Biol. Chem. Vol. 42, 2417, 1978). The corresponding number of test tubes to the number of the compounds to be tested were prepared and 2.5 mM Z-glycyl-proline-β-naphthylamide (0.25 ml), 0.1 M phosphate buffer (pH 7.0, 0.99 ml) and a solution of one of the peptides of the invention (0.1 ml) were placed in each test tube and warmed at 37° C. for 3 minutes. 0.1 ml of solution of propylendopeptidase (0.2 unit/ml) was added to each test tube. After reaction at 35° C. for 10 minutes, 1 M acetate buffer containing Triton X-100 (pH 4.0) was added to a final concentration of 10% and after the mixture was left to stand at room temperature for 15 minutes the absorbance (a) at 410 nm was measured.
The above-mentioned procedure was followed in the same manner but using buffers only in place of the solution of each compound of the invention, and the absorbance (b) was measured.

proline endopeptidase = conditions: prior art; cited from earlier work
[2] = prior art; cited from earlier work
[3] = Table 2, 5 mg/kg p.o., **p < 0.01 (Mann-Whitney)

| Compound | Ki (prolylendopeptidase) [µM] | Relative step-down latency in retention trial (mean ± S.E.) ([1]; Table 2, 1 mg/kg p.o.) | Relative step-down latency in retention trial (mean ± S.E.) [1, 3] | Relative step-down latency in retention trial (mean ± S.E.) ([1]; Table 2, 25 mg/kg p.o.) | Relative step-down latency in retention trial (mean ± S.E.) ([1]; Table 2, 50 mg/kg p.o.) | Relative step-down latency in retention trial (mean ± S.E.) ([1]; Table 2, 100 mg/kg p.o.) | also measured |
| --- | --- | --- | --- | --- | --- | --- | --- |
| O=C[C@@H]1CCCN1C(=O)[C@@H]1CCCN1C(=O)OCc1ccccc1 [ZPP, Benzyloxycarbonyl-L-prolyl-L-prolinal] (Cbz-Pro-Pro-aldehyde) |  | 2.8 ± 1.3 | 8.5 ± 1.6 | 1.4 ± 0.8 | 0.5 ± 0.1 | 1.3 ± 0.8 | inhibitory activity to proline endopeptidase (proline endopeptidase): inhibitory activity to proline endopeptidase; anti-amnestic action [2]: anti-amnestic action |
| COc1ccc(C(=O)N2CCCC2=O)cc1 [aniracetam] |  |  |  |  |  |  | Relative step-down latency in retention trial (mean ± S.E.) ([1]; Table 3, 12.5 mg/kg p.o.): 1.1 ± 0.4; Relative step-down latency in retention trial (mean ± S.E.) ([1]; Table 3, 25 mg/kg p.o.): 1.6 ± 0.6; Relative step-down latency in retention trial (mean ± S.E.) ([1]; Table 3, 50 mg/kg p.o., *p < 0.05 (Mann-Whitney)): 2.3 ± 0.6; Relative step-down latency in retention trial (mean ± S.E.) ([1]; Table 3, 100 mg/kg p.o.): 0.7 ± 0.3 |

The next lines start with results.

| Ki (prolylendopeptidase) [µM] | Compound | Relative step-down latency in retention trial (mean ± S.E.) ([1]; Table 2, 1 mg/kg p.o.) | Relative step-down latency in retention trial (mean ± S.E.) [1, 3] | Relative step-down latency in retention trial (mean ± S.E.) ([1]; Table 2, 25 mg/kg p.o.) | Relative step-down latency in retention trial (mean ± S.E.) ([1]; Table 2, 50 mg/kg p.o.) | Relative step-down latency in retention trial (mean ± S.E.) ([1]; Table 2, 100 mg/kg p.o.) | also measured |
| --- | --- | --- | --- | --- | --- | --- | --- |
| 2.2 | CCOC(OCC)[C@@H]1CCCN1C(=O)[C@@H]1CCCN1C(=O)OCc1ccccc1 [Example 8, N-benzyloxycarbonyl-L-prolyl-L-prolinal diethyl acetal] | 2.0 ± 0.5 | 0.9 ± 0.2 | 1.2 ± 0.3 | 0.7 ± 0.3 | 0.6 ± 0.3 |  |
| 370 | CCOC(OCC)[C@@H]1CCCN1C(=O)[C@@H]1CCCN1C(=O)CCC(=O)O [Example 12, N-succinyl-L-prolyl-L-prolinal diethyl acetal] |  |  |  |  |  |  |
| 1000 | CCOC(OCC)[C@@H]1CCCN1C(=O)CN(C)C(=O)CCC(=O)O [Example 14, N-succinyl-sarcosyl-L-prolinal diethyl acetal] |  |  |  |  |  |  |
| 1000 | CCOC(OCC)[C@@H]1CCCN1C(=O)[C@@H]1CCC(=O)N1C(=O)CCC(=O)O [Example 16, N-succinyl-L-pyroglutamyl-L-prolinal diethyl acetal] |  |  |  |  |  |  |
